{"source": "paper PMC11224111", "about": "“Optimizing the pharmacokinetics of an ^211At-labeled RGD peptide with an albumin-binding moiety via the administration of an albumin-binding inhibitor” (European Journal of Nuclear Medicine and Molecular Imaging, 2024)", "test": "Biodistribution of [^211At]1 and [^125I]2 in normal mice with ibuprofen or IPBA as albumin-binding inhibitor", "conditions": "4 h after administration", "experimental": "To evaluate the effects of albumin-binding inhibitors in normal mice, [^211At]1 (37 kBq) and [^125I]2 (37 kBq) were intravenously coadministered. […] The total blood albumin (1.1 µmol) in normal mice was calculated from the albumin concentration (3.0 g/dL ≈ 455 µM) in blood, which was informed from Japan SLC, Inc., total blood volume (2.5 mL) as 8% of body weight, and the molecular weight of albumin as 66,000 g/mol. […]\nTable S1. Biodistribution of radioactivity 4 h after administration of [^211At]1 and [^125I]2 in normal mice.", "key": {"[1]": {"conditions": "IPBA 10 eq at 1 h postinjection"}, "[2]": {"conditions": "ibuprofen 10 eq at 1 h postinjection"}}, "note": "Marks after values point to notes of the source that are not given here."}
{"substance": "Ga-DOTA-K([^211At]APBA)-c(RGDfK) [[^211At]1]", "values": [{"measurement": "Radioactivity, Liver", "setting": "IPBA 2 eq at 1 h postinjection", "value": "1.68 (0.15)^ a % injected activity per gram"}, {"measurement": "Radioactivity, Lung", "setting": "IPBA 2 eq at 1 h postinjection", "value": "4.96 (0.40)^ a, b % injected activity per gram"}, {"measurement": "Radioactivity, Muscle", "setting": "IPBA 2 eq at 1 h postinjection", "value": "1.16 (0.09) % injected activity per gram"}, {"measurement": "Radioactivity, Neck", "setting": "IPBA 2 eq at 1 h postinjection", "value": "0.23 (0.07)^ a % injected activity"}, {"measurement": "Radioactivity, Pancreas", "setting": "IPBA 2 eq at 1 h postinjection", "value": "1.55 (0.15)^ a, b % injected activity per gram"}, {"measurement": "Radioactivity, S. intestine", "setting": "IPBA 2 eq at 1 h postinjection", "value": "1.47 (0.05) % injected activity per gram"}, {"measurement": "Radioactivity, Spleen", "setting": "IPBA 2 eq at 1 h postinjection", "value": "1.54 (0.18) % injected activity per gram"}, {"measurement": "Radioactivity, Stomach", "setting": "IPBA 2 eq at 1 h postinjection", "value": "1.84 (0.32) % injected activity"}, {"measurement": "Radioactivity, Blood", "setting": "IPBA 5 eq at 1 h postinjection", "value": "3.46 (0.33)^ a, b, c % injected activity per gram"}, {"measurement": "Radioactivity, Bone", "setting": "IPBA 5 eq at 1 h postinjection", "value": "0.95 (0.08)^ a, b % injected activity per gram"}, {"measurement": "Radioactivity, Brain", "setting": "IPBA 5 eq at 1 h postinjection", "value": "0.16 (0.01)^ a % injected activity per gram"}, {"measurement": "Radioactivity, Heart", "setting": "IPBA 5 eq at 1 h postinjection", "value": "1.38 (0.13)^ a, b, c % injected activity per gram"}, {"measurement": "Radioactivity, Kidney", "setting": "IPBA 5 eq at 1 h postinjection", "value": "3.67 (0.10) ^b % injected activity per gram"}, {"measurement": "Radioactivity, L. intestine", "setting": "IPBA 5 eq at 1 h postinjection", "value": "0.84 (0.22) ^b % injected activity per gram"}, {"measurement": "Radioactivity, Liver", "setting": "IPBA 5 eq at 1 h postinjection", "value": "1.35 (0.16)^ a, b, c % injected activity per gram"}, {"measurement": "Radioactivity, Lung", "setting": "IPBA 5 eq at 1 h postinjection", "value": "2.84 (0.27)^ a, b, c % injected activity per gram"}, {"measurement": "Radioactivity, Muscle", "setting": "IPBA 5 eq at 1 h postinjection", "value": "0.62 (0.04)^ a, b, c % injected activity per gram"}, {"measurement": "Radioactivity, Neck", "setting": "IPBA 5 eq at 1 h postinjection", "value": "0.08 (0.02)^ a, b % injected activity"}, {"measurement": "Radioactivity, Pancreas", "setting": "IPBA 5 eq at 1 h postinjection", "value": "1.03 (0.15)^ a, b, c % injected activity per gram"}, {"measurement": "Radioactivity, S. intestine", "setting": "IPBA 5 eq at 1 h postinjection", "value": "1.35 (0.13) % injected activity per gram"}, {"measurement": "Radioactivity, Spleen", "setting": "IPBA 5 eq at 1 h postinjection", "value": "1.19 (0.73)^ a % injected activity per gram"}, {"measurement": "Radioactivity, Stomach", "setting": "IPBA 5 eq at 1 h postinjection", "value": "1.45 (0.45)^ a, b % injected activity"}, {"measurement": "Radioactivity, Blood", "setting": "[1]", "value": "1.56 (0.20)^ a, b, c, d % injected activity per gram"}, {"measurement": "Radioactivity, Bone", "setting": "[1]", "value": "0.98 (0.12)^ a, b, c % injected activity per gram"}, {"measurement": "Radioactivity, Brain", "setting": "[1]", "value": "0.14 (0.02)^ a % injected activity per gram"}, {"measurement": "Radioactivity, Heart", "setting": "[1]", "value": "0.78 (0.10)^ a, b, c, d % injected activity per gram"}, {"measurement": "Radioactivity, Kidney", "setting": "[1]", "value": "3.77 (0.50)^ b % injected activity per gram"}, {"measurement": "Radioactivity, L. intestine", "setting": "[1]", "value": "0.88 (0.27)^ b % injected activity per gram"}, {"measurement": "Radioactivity, Liver", "setting": "[1]", "value": "0.80 (0.07)^ a, b, c % injected activity per gram"}, {"measurement": "Radioactivity, Lung", "setting": "[1]", "value": "1.88 (0.12)^ a, b, c % injected activity per gram"}, {"measurement": "Radioactivity, Muscle", "setting": "[1]", "value": "0.42 (0.03)^ a, b, c, d % injected activity per gram"}, {"measurement": "Radioactivity, Neck", "setting": "[1]", "value": "0.03 (0.02)^ b, c, d % injected activity"}, {"measurement": "Radioactivity, Pancreas", "setting": "[1]", "value": "0.66 (0.17)^ a, b, c, d % injected activity per gram"}, {"measurement": "Radioactivity, S. intestine", "setting": "[1]", "value": "1.14 (0.08)^ a, b, d % injected activity per gram"}, {"measurement": "Radioactivity, Spleen", "setting": "[1]", "value": "1.22 (0.17)^ a % injected activity per gram"}, {"measurement": "Radioactivity, Stomach", "setting": "[1]", "value": "1.30 (0.20)^ d % injected activity"}, {"measurement": "Radioactivity, Blood", "setting": "[2]", "value": "10.82 (0.58) ^a % injected activity per gram"}, {"measurement": "Radioactivity, Bone", "setting": "[2]", "value": "1.57 (0.18)^ a % injected activity per gram"}, {"measurement": "Radioactivity, Brain", "setting": "[2]", "value": "0.26 (0.03) % injected activity per gram"}, {"measurement": "Radioactivity, Heart", "setting": "[2]", "value": "3.49 (0.36) % injected activity per gram"}, {"measurement": "Radioactivity, Kidney", "setting": "[2]", "value": "3.03 (0.24) % injected activity per gram"}, {"measurement": "Radioactivity, L. intestine", "setting": "[2]", "value": "2.32 (0.57) % injected activity per gram"}, {"measurement": "Radioactivity, Liver", "setting": "[2]", "value": "1.87 (0.31)^ a % injected activity per gram"}, {"measurement": "Radioactivity, Lung", "setting": "[2]", "value": "6.44 (1.14) % injected activity per gram"}, {"measurement": "Radioactivity, Muscle", "setting": "[2]", "value": "1.28 (0.15) % injected activity per gram"}, {"measurement": "Radioactivity, Neck", "setting": "[2]", "value": "0.18 (0.03)^ a % injected activity"}, {"measurement": "Radioactivity, Pancreas", "setting": "[2]", "value": "1.85 (0.12) % injected activity per gram"}, {"measurement": "Radioactivity, S. intestine", "setting": "[2]", "value": "1.58 (0.15) % injected activity per gram"}, {"measurement": "Radioactivity, Spleen", "setting": "[2]", "value": "1.47 (0.29)^ a % injected activity per gram"}, {"measurement": "Radioactivity, Stomach", "setting": "[2]", "value": "1.57 (0.21) % injected activity"}, {"measurement": "Radioactivity, Blood", "setting": "vehicle at 1 h postinjection", "value": "14.03 (0.79) % injected activity per gram"}, {"measurement": "Radioactivity, Bone", "setting": "vehicle at 1 h postinjection", "value": "1.88 (0.10) % injected activity per gram"}, {"measurement": "Radioactivity, Brain", "setting": "vehicle at 1 h postinjection", "value": "0.37 (0.11) % injected activity per gram"}, {"measurement": "Radioactivity, Heart", "setting": "vehicle at 1 h postinjection", "value": "3.83 (0.30) % injected activity per gram"}, {"measurement": "Radioactivity, Kidney", "setting": "vehicle at 1 h postinjection", "value": "3.19 (0.20) % injected activity per gram"}, {"measurement": "Radioactivity, L. intestine", "setting": "vehicle at 1 h postinjection", "value": "1.52 (0.35) % injected activity per gram"}, {"measurement": "Radioactivity, Liver", "setting": "vehicle at 1 h postinjection", "value": "2.51 (0.20) % injected activity per gram"}, {"measurement": "Radioactivity, Lung", "setting": "vehicle at 1 h postinjection", "value": "7.69 (0.63) % injected activity per gram"}, {"measurement": "Radioactivity, Muscle", "setting": "vehicle at 1 h postinjection", "value": "1.26 (0.09) % injected activity per gram"}, {"measurement": "Radioactivity, Neck", "setting": "vehicle at 1 h postinjection", "value": "0.05 (0.01) % injected activity"}, {"measurement": "Radioactivity, Pancreas", "setting": "vehicle at 1 h postinjection", "value": "1.88 (0.10) % injected activity per gram"}, {"measurement": "Radioactivity, S. intestine", "setting": "vehicle at 1 h postinjection", "value": "1.85 (0.16) % injected activity per gram"}, {"measurement": "Radioactivity, Spleen", "setting": "vehicle at 1 h postinjection", "value": "2.02 (0.26) % injected activity per gram"}, {"measurement": "Radioactivity, Stomach", "setting": "vehicle at 1 h postinjection", "value": "0.80 (0.10) % injected activity"}]}
